Measurements as given in patent US4774248A, “Methods of treating depression and depressive states using 5-phenyl-1,4,5,6-tetrahydropyrimidine derivatives” (priority 1985, dated 1988).
“Also recorded” adds a separate entry of the source.

Key:
male mice = experiment: Acute toxicity, intraperitoneal (LD0, LD30, LD60, LD100); format: in vivo
Experimental: (§1) The results of toxicological and neuropsychopharmacological tests which were carried out with the products according to the invention have been summarized below. In these tests, solutions of the said products in distilled water were administered intraperitoneally in a volume of 20 ml/kg to male mice and in a volume of 5 ml/kg to male rats.

mice [1] = experiment: Overall behavior and reactivities in mice; format: in vivo; settings: i.p.
Experimental: as §1
(§2) Groups of 3 animals are observed before and then 0.25 h, 0.50 h, 1 h, 2 h, 3 h and 24 h after the administration of CRL 41 378. The following observations are made:
(§3) Groups of 3 animals are observed before and then 0.25 h, 0.50 h, 1 h, 2 h, 3 h and 24 h after the administration of CRL 41 329.

mice [2] = experiment: Intergroup aggressiveness; format: in vivo; settings: mice, i.p.
Experimental: as §1
After they have stayed for 3 weeks in the two halves of a cage divided by an opaque partition, groups of 3 mice receive CRL 41 378. Half an hour later, the two groups from the same cage are brought together by removal of the partition and the number of fights which occur in 10 minutes is noted.

[3] = tested on: hypothermia, trembling and peripheral cholinergic symptoms induced by oxotremorine; experiment: Interaction with oxotremorine; format: in vivo; settings: mice, i.p.; oxotremorine 0.5 mg/kg
Experimental: as §1
CRL 41 378 is administered to groups of 6 mice 0.5 h before the intraperitoneal injection of 0.5 mg/kg of oxotremorine.

mice [4] = experiment: Motility reduced by hypoxic aggression (acute hypobaric anoxia); format: in vivo; settings: i.p.
Experimental: In these tests, solutions of the said products in distilled water were administered intraperitoneally in a volume of 20 ml/kg to male mice and in a volume of 5 ml/kg to male rats.

mice [5] = experiment: Behavioral despair (forced immersion); format: in vivo; settings: mice which have been forcibly immersed, i.p.
Experimental: as §1
Half an hour after they have received CRL 41 378, groups of 6 mice are placed in a beaker filled with water to a height of 6 cm. The total period of immobility between the 2nd and 6th minutes following immersion is noted.

mice [6] = experiment: Motility reduced by habituation to the enclosure; format: in vivo; settings: i.p.
Experimental: as §1
After they have stayed in the actimeters for 18 hours, the mice (6 per dose, 12 control animals) receive CRL 41 378. They are immediately returned to their respective enclosures and, half an hour later, their motility is recorded for 30 minutes.

[7] = tested on: central nervous system (CNS); experiment: Neuropsychopharmacological profile (conclusions of the tests); format: in vivo, mice and rats; settings: for overall neuropsychopharmacological profile: summary
Experimental: as §1

rats = experiment: Overall behavior and reactivities in rats; format: in vivo; settings: i.p.
Experimental: as §1, §2, §3

[8] = tested on: hypothermia, righting behavior and stereotypies induced by apomorphine; experiment: Interaction with apomorphine in mice; format: in vivo; settings: i.p.
Experimental: as §1
CRL 41 378 is administered to groups of 6 mice 30 minutes before the subcutaneous injection of 1 or 16 mg/kg of apomorphine.

mice [9] = experiment: Electric shock; format: in vivo; settings: i.p.
Experimental: as §1
The test is performed on groups of 10 mice 30 minutes after the administration of CRL 41 378.

[10] = tested on: hypothermia and ptosis induced by reserpine; experiment: Interaction with reserpine; format: in vivo; settings: mice, i.p.; reserpine 2.5 mg/kg
Experimental: as §1
Four hours after the intraperitoneal injection of 2.5 mg/kg of reserpine, groups of 12 mice receive CRL 41 378.

mice [11] = experiment: Spontaneous motility (actimeter); format: in vivo; settings: i.p.
Experimental: as §1
0.5 h after they have received CRL 41 378, the mice (6 per dose, 12 control animals) are placed in an actimeter, where their motility is recorded for 30 minutes.

[12] = tested on: trembling and head twitches induced by 5-hydroxytryptophan (5-HTP); experiment: Interaction with 5-hydroxytryptophan in association with an MAOI (nialamide); format: in vivo, male mice; settings: for all the effects of 5-HTP: reference substances, in the presence of an MAOI; for trembling: reference β-adrenergic stimulants
Experimental: The purpose of the procedure used is to investigate the activity of each product according to the invention as regards the trembling induced by 5-hydroxytryptophan (5-HTP) in association with an MAOI (in this case nialamide).
Each test product, in solution in distilled water, is administered intraperitoneally in a volume of 20 ml/kg to male mice.
Groups of 10 mice receive nialamide (20 mg/kg, administered gastrically) at time T-18 h, each test product at time T-0.5 h and then (±)-5-HTP (20 mg/kg, administered intraperitoneally) at time T. Immediately after the injection of the (±)-5-HTP, the mice are individually placed in transparent plastic boxes. The generalized trembling, the partial trembling and the head twitches are noted on a yes/no basis for 2 h.

[13] = tested on: hypothermia induced by apomorphine; experiment: Interaction with apomorphine by gastric administration; format: in vivo; settings: Mus musculus, male mice, apomorphine 16 mg/kg s.c., read-out: dose as from which the hypothermia induced by apomorphine is opposed
Experimental: Each test product is administered gastrically to male mice, in a volume of 20 ml/kg, 0.50 h before the subcutaneous injection of 16 mg/kg of apomorphine.

pregnant rabbits = experiment: Teratogenic effects on pregnant rabbits; format: in vivo
[14] = tested on: depressions and depressive states; experiment: Clinical trials in depression and depressive states; format: in vivo, human
Experimental: The clinical trials which have been undertaken have made it possible to determine that the daily dose to be administered orally to adults, in the treatment of depressions and depressive states, is generally between 3 and 120 mg for the products of the formulae Ia and Ib according to the invention.

[15] = i.p., nialamide + (±)-5-HTP, male mice

CN1C=NCC(c2ccccc2)C1.Cl (stereo not drawn) [CRL 41 337, 1-methyl-5-phenyl-1,4,5,6-tetrahydropyrimidine hydrochloride]
LD0 (maximum non-lethal dose) (male mice; intraperitoneal): greater than 256 mg/kg | LD60 (male mice; intraperitoneal): about 500 mg/kg | LD100 (minimum dose lethal to all the animals) (male mice; intraperitoneal): less than or equal to 1000 mg/kg | overall behavior and reactivities (mice [1]; 128 mg/kg): moderate hypothermia (-1.6 °C one hour after administration) for 3 h | moderate hypothermia (mice [1]; 128 mg/kg, one hour after administration): -1.6 °C | overall behavior and reactivities (mice [1]; 2 to 32 mg/kg): no distinct modification of the behavior and reactivities compared with the control animals | intergroup aggressiveness (number of fights) (mice [2]): a decrease in the intergroup aggressiveness | action on hypothermia induced by oxotremorine [3]: antagonism of the hypothermia induced by apomorphine, reserpine and oxotremorine | motor recovery after acute hypobaric hypoxia (mice [4]): at high doses, CRL 41 337 paradoxically causes an improvement in the motor recovery of mice after acute hypobaric hypoxia | period of immobility (mice [5]; hydrochloride): no modification of the period of immobility due to despair; also recorded: no effect on the immobility due to despair | resumption in the motor activity of mice accustomed to their enclosure (mice [6]): a resumption in the motor activity of mice accustomed to their enclosure | antidepressant effects ([7]; i.p.): antidepressant effects | peripheral anticholinergic activity ([7]; i.p.): no anticholinergic action | stimulant effects ([7]; i.p.): no stimulation of the spontaneous motor activity | peripheral α-adrenergic stimulant effects ([7]; i.p., hydrochloride): peripheral α-adrenergic stimulant effects; also recorded: mydriasis in rats | sedative effects ([7]; i.p., hydrochloride): sedative effects; also recorded: hypothermia | overall neuropsychopharmacological profile ([7]; hydrochloride): acts principally as an antidepressant; also recorded: resemble those of β-adrenergic stimulants | overall behavior and reactivities (rats; 1 and 4 mg/kg): no distinct modification of the behavior and reactivities compared with the control animals | overall behavior and reactivities (rats; 16 and 64 mg/kg): mydriasis | action on hypothermia induced by apomorphine [8]: antagonism of the hypothermia induced by apomorphine, reserpine and oxotremorine | lethal effects of electric shock (mice [9]): at a high dose, CRL 41 337 causes aggravation of the lethal effects of electric shock | action on hypothermia induced by reserpine [10]: antagonism of the hypothermia induced by apomorphine, reserpine and oxotremorine | action on ptosis induced by reserpine [10]: antagonism of the ptosis induced by reserpine | spontaneous motor activity (mice [11]): a decrease in the motor activity

CC1=NCC(c2ccccc2)CN1.Cl (stereo not drawn) [CRL 41 352, 2-methyl-5-phenyl-1,4,5,6-tetrahydropyrimidine hydrochloride]
toxic signs in the animals treated (male mice; 64 mg/kg i.p.): all the animals treated exhibit sedation and a decrease in the breathing rate | LD0 (maximum non-lethal dose) (male mice; intraperitoneal): greater than 64 mg/kg | LD30 (male mice; intraperitoneal): ~128 mg/kg | analogy with β-adrenergic stimulants in the 5-HTP procedure ([12]; 5-HTP + MAOI): effects analogous to those of isoprenaline | intensity of potentiation of 5-HTP effects ([12]; higher doses, 5-HTP + MAOI, male mice): the potentiation being very intense at the doses of 8 to 32 mg/kg | head twitches [12, 15]: distinctly potentiate the partial trembling and the head twitches | partial trembling [12, 15]: distinctly potentiate the partial trembling and the head twitches | overall behavior and reactivities (mice [1]; 0.5 mg/kg, 2 mg/kg, 8 mg/kg and 32 mg/kg): no distinct modification of the behavior and reactivities | minimal effective dose [13]: ≥ 0.5 mg/kg | intergroup aggressiveness (number of fights) (mice [2]): a decrease in the number of fights in the intergroup aggressiveness test | action on hypothermia induced by oxotremorine [3]: significant antagonism (as from the lowest doses used) of the hypothermia induced by apomorphine and oxotremorine | period of immobility (mice [5]): no decrease in the period of immobility due to "despair" | resumption in the motor activity of mice accustomed to their enclosure (mice [6]): a resumption in the motor activity of mice accustomed to their enclosure | teratogenic effects (pregnant rabbits): devoid of harmful teratogenic effects on pregnant rabbits | antidepressant effects ([7]; i.p.): antidepressant effects which are very distinct | sedative effects ([7]; i.p.): sedative effects appearing at very high doses | stimulant effects ([7]; i.p.): a stimulant effect which is very moderate, appearing at high doses | overall neuropsychopharmacological profile [7]: principally an antidepressant having a very slight stimulant component and a very weak sedative component | effectiveness in ambulant patients with depressive symptomatology ([14]; asthenia, slowing down or both psycho-intellectual and motor inhibition): particularly effective | results in human therapy (depression) ([14]; daily oral administration to adults): excellent results | overall behavior and reactivities (rats; 4 mg/kg and 16 mg/kg): mydriasis | overall behavior and reactivities (rats; 16 mg/kg): a decrease in the breathing rate | action on hypothermia induced by apomorphine [8]: significant antagonism (as from the lowest doses used) of the hypothermia induced by apomorphine and oxotremorine | action on hypothermia induced by reserpine [10]: more moderate antagonism of the hypothermia induced by reserpine

CC(N)Cc1ccccc1 (stereo not drawn) [amphetamine, reference compound]
all the effects of 5-HTP [12]: potentiate all the effects of 5-HTP in the presence of an MAOI

CNCCCN1c2ccccc2CCc2ccccc21 [desipramine, reference compound]
all the effects of 5-HTP [12]: potentiate all the effects of 5-HTP in the presence of an MAOI

CCNC(C)Cc1cccc(C(F)(F)F)c1 (stereo not drawn) [fenfluramine, reference compound]
all the effects of 5-HTP [12]: potentiate all the effects of 5-HTP in the presence of an MAOI

CC(Cc1ccc(O)cc1)NCC(O)c1cc(O)cc(O)c1 (stereo not drawn) [fenoterol, reference compound]
head twitches [12, 15]: moderate potentiation of the head twitches | trembling ([12]; 5-HTP + MAOI): distinct potentiation of the trembling

CC(C)NCC(O)c1ccc(O)c(O)c1 (stereo not drawn) [isoprenaline, reference compound]
head twitches [12, 15]: distinct potentiation of the trembling and head twitches | trembling ([12]; 5-HTP + MAOI): distinct potentiation of the trembling and head twitches

CC(C)NCC(O)c1cc(O)cc(O)c1 (stereo not drawn) [ociprenaline, reference compound]
head twitches [12, 15]: no modification of the trembling or head twitches | trembling ([12]; 5-HTP + MAOI): no modification of the trembling or head twitches

CC(NCCc1ccc(O)cc1)C(O)c1ccc(O)cc1 (stereo not drawn) [ritodrine, reference compound]
head twitches [12, 15]: no modification of the head twitches | trembling ([12]; 5-HTP + MAOI): moderate potentiation of the trembling

CC(C)(C)NCC(O)c1ccc(O)c(CO)c1 (stereo not drawn) [salbutamol, reference compound]
head twitches [12, 15]: no modification of the head twitches | trembling ([12]; 5-HTP + MAOI): moderate potentiation of the trembling

CC(C)(C)NCC(O)c1cc(O)cc(O)c1 (stereo not drawn) [terbutaline, reference compound]
head twitches [12, 15]: no modification of the trembling or head twitches | trembling ([12]; 5-HTP + MAOI): no modification of the trembling or head twitches
